Drawing on patent US20130281465A1, “PYRAZOLE DERIVATIVE” (TAISHO PHARMACEUTICAL CO., LTD., priority 2010, published 2013), this text covers IC50 for 21 compounds.

Molecules are shown by their SMILES.

In test [1] the target is T1, orexin type 2 receptor (hOX2R) (Homo sapiens, UniProt O43614).
T1 construct: expressed in transfected cells; host or cells: Chinese hamster ovary (CHO) cells
T1 sequence (O43614 1-444): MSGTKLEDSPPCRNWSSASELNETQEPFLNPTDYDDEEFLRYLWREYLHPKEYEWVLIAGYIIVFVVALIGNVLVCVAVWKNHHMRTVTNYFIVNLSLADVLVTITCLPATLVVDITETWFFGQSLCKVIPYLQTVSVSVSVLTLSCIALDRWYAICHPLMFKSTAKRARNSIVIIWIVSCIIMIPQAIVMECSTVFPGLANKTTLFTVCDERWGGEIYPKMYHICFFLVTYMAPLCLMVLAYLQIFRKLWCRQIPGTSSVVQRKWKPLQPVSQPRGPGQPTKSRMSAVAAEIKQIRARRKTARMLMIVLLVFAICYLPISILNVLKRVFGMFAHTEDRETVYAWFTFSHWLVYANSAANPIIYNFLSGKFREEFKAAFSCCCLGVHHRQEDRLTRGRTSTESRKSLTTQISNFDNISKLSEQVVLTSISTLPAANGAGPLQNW
As to the kind of experiment: Orexin receptor antagonistic activity, intracellular Ca2+ fluorescence (FDSS) in CHO cells expressing hOX2R. The following applies: CHO cells forced to express hOX2R; orexin-A analogue peptide ligand 3 nM; Fluo-4 maximum fluorescence; read-out: IC50 value OX2R. In kind it is cell-based. On the procedure: (§1) The antagonistic activity of each test compound against human orexin type 1 receptor (hOX1R) and orexin type 2 receptor (hOX2R) was performed as described in the literature with a modification (Toshikatsu Okumura et al., Biochemical and Biophysical Research Communications 280, 976-981, 2001). Chinese hamster ovary (CHO) cells forced to express hOX1R or hOX2R were seeded at 20,000 cells/well on a 96 well Black clear bottom plates (Nunc) and cultured for 16 hours under conditions of 37° C. and 5% CO2 using a Ham's F-12 medium containing 0.1 mM MEM non-essential amino acids, 0.5 mg/ml G418, and 10% fetal bovine serum (all from Invitrogen Corp.). After removal of the medium, 100 μL of the assay buffer (25 mM HEPES (Dojindo Laboratories), Hanks' balanced salt solution (Invitrogen Corp.), 0.1% bovine serum albumin, 2.5 mM probenecid, 200 μg/ml Amaranth (all from Sigma-Aldrich Corp.), pH 7.4) containing 0.5 μM Fluo-4AM ester (Dojindo Laboratories) was added thereto, and the cells were incubated for 60 minutes under conditions of 37° C. and 5% CO2. After removal of the buffer solution for assay containing Fluo-4AM ester, the test compound was dissolved at a concentration of 10 mM in dimethyl sulfoxide and diluted with the assay buffer, and 150 μL of the diluted solution was then added to each wells, which were then incubated for 30 minutes.
(§2) A peptide (Pyr-[…]11e-Leu-Thr-Leu-NH2; Peptide Institute, Inc.) substituted 2 amino acids of human orexin-A was diluted with the assay buffer to 300 pM (final concentration for hOX1R) or 3 nM (final concentration for hOX2R). 50 μL of this ligand solution was added thereto to start reaction. During the reaction, the fluorescence value of each well was measured every one second for 3 minutes using Functional Drug Screening System (FDSS; manufactured by Hamamatsu Photonics K.K.), and antagonistic activity was determined with the maximum fluorescence value as an index for intracellular Ca^2+ concentration. The antagonistic activity of the test compound was calculated with the fluorescence value of a well supplemented with only a dilution buffer solution as 100% and the fluorescence value of a well supplemented with a buffer solution containing neither the ligand nor the compound as 0%, and determined in terms of 50% inhibitory concentration (IC50 value) from fluorescence values derived from the test compound added at varying concentrations.

Test [2] addresses T2, human orexin type 1 receptor (hOX1R) (Homo sapiens, UniProt O43613).
T2 construct: expressed in transfected cells; host or cells: Chinese hamster ovary (CHO) cells
T2 sequence (O43613 1-425): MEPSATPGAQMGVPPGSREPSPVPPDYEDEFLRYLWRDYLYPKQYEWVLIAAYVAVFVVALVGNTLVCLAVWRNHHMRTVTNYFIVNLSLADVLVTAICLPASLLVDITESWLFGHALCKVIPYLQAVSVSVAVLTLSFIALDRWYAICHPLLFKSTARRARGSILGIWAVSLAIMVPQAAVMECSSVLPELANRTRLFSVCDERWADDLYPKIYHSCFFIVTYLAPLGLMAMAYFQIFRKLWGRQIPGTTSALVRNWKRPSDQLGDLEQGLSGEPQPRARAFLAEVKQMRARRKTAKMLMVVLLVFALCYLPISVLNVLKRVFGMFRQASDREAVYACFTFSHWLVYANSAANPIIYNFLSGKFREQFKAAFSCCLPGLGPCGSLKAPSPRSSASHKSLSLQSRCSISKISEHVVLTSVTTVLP
As to the kind of experiment: Orexin receptor antagonistic activity, intracellular Ca2+ fluorescence (FDSS) in CHO cells expressing hOX1R. In kind it is cell-based. The following applies: CHO cells forced to express hOX1R; orexin-A analogue peptide ligand 300 pM; Fluo-4 maximum fluorescence; read-out: IC50 value OX1R. On the procedure:
as §1, §2

With `Cc1ccc(-n2nccn2)c(C(=O)N(CCn2ccc(-c3ccccc3)n2)CC2CC2)c1` [Example 29, N-(cyclopropylmethyl)-5-methyl-N-[2-(3-phenyl-1H-pyrazol-1-yl)ethyl]-2-(2H-1,2,3-triazol-2-yl)benzamide], the IC50 in test [1] turned out to be 6.1 nM; in test [2], 1.5 nM.

Regarding `CCN(CCn1ccc(-c2ccc(F)cn2)n1)C(=O)c1ccccc1-c1ncccn1` [Example 34, N-ethyl-N-{2-[3-(5-fluoropyridin-2-yl)-1H-pyrazol-1-yl]ethyl}-2-(pyrimidin-2-yl)benzamide], the IC50 in test [1] is 8.9 nM; in test [2] it was 8.4 nM.

Take `CCN(CCn1ccc(-c2ccc(F)cn2)n1)C(=O)c1cccc(F)c1-n1nccn1` [Example 48, N-ethyl-3-fluoro-N-{2-[3-(5-fluoropyridin-2-yl)-1H-pyrazol-1-yl]ethyl}-2-(2H-1,2,3-triazol-2-yl)benzamide]: the concentration for half-maximal inhibition (IC50) came to 10.3 nM in test [1] and 5.5 nM in test [2].

On to `CCN(CCn1ccc(-c2cccc(C(F)(F)F)n2)n1)C(=O)c1ccccc1-c1ncccn1` [Example 58, N-ethyl-(pyrimidin-2-yl)-N-(2-{3-[6-(trifluoromethyl)pyridin-2-yl]-1H-pyrazol-1-yl}ethyl)benzamide], for which the half-inhibitory concentration (IC50) in test [1] stood at 140 nM; in test [2], 78.9 nM.

Consider `CCN(CCn1ccc(-c2ccc(F)cn2)n1)C(=O)c1c(F)cccc1-n1nccn1` [Example 45, N-ethyl-2-fluoro-N-{2-[3-(5-fluoropyridin-2-yl)-1H-pyrazol-1-yl]ethyl}-6-(2H-1,2,3-triazol-2-yl)benzamide], for which the IC50 in test [1] was 46.9 nM; in test [2], 38.7 nM.

Consider `CCN(CCn1cc(-c2ccc(F)cn2)cn1)C(=O)c1cc(F)ccc1-n1nccn1` [Example 56, N-ethyl-5-fluoro-N-{2-[4-(5-fluoropyridin-2-yl)-1H-pyrazol-1-yl]ethyl}-2-(2H-1,2,3-triazol-2-yl)benzamide], for which the 50% inhibitory concentration (IC50) was determined as 95.9 nM in test [1] and 38 nM in test [2].

Take `CCN(CCn1ccc(-c2ccc(F)c(F)c2)n1)C(=O)c1cc(F)ccc1-c1ncccn1` [Example 53, N-{2-[3-(3,4-difluorophenyl)-1H-pyrazol-1-yl]ethyl}-N-ethyl-5-fluoro-2-(pyrimidin-2-yl)benzamide]: the IC50 in test [1] was found to be 7.8 nM; in test [2], 1.5 nM.

In the case of `CCN(CCn1ccc(-c2ccc(F)cn2)n1)C(=O)c1c(F)cccc1-c1ncccn1` [Example 46, N-ethyl-2-fluoro-N-{2-[3-(5-fluoropyridin-2-yl)-1H-pyrazol-1-yl]ethyl}-6-(pyrimidin-2-yl)benzamide], the IC50 was determined as 149 nM in test [1] and 92.5 nM in test [2].

Take `CCN(CCn1ccc(-c2ccc(F)cn2)n1)C(=O)c1cc(C)ccc1-n1nccn1` [Example 19, N-ethyl-N-{2-[3-(5-fluoropyridin-2-yl)-1H-pyrazol-1-yl]ethyl}-5-methyl-2-(2H-1,2,3-triazol-2-yl)benzamide]: the IC50 in test [1] came to 3.9 nM; in test [2] it was 1.5 nM.

In the case of `CCN(CCn1ccc(-c2cccc(C(F)(F)F)n2)n1)C(=O)c1cc(F)ccc1-c1ncccn1` [Example 57, N-ethyl-5-fluoro-2-(pyrimidin-2-yl)-N-(2-{3-[6-(trifluoromethyl)pyridin-2-yl]-1H-pyrazol-1-yl}ethyl)benzamide], the values for the IC50 in test [1] and in test [2] were 99.5 nM and 22.9 nM, respectively.

Turning to `CCN(CCn1ccc(-c2ccc(F)cc2)n1)C(=O)c1cc(F)ccc1-c1ncccn1` [Example 54, N-ethyl-5-fluoro-N-{2-[3-(4-fluorophenyl)-1H-pyrazol-1-yl]ethyl}-2-(pyrimidin-2-yl)benzamide], the IC50 in test [1] was 19.2 nM; in test [2], 2 nM.

Consider `CCN(CCn1ccc(-c2ccc(F)cn2)n1)C(=O)c1cc(C)ccc1-c1ccccn1` [Example 35, N-ethyl-N-{2-[3-(5-fluoropyridin-2-yl)-1H-pyrazol-1-yl]ethyl}-5-methyl-2-(pyridin-2-yl)benzamide], for which the IC50 in test [1] amounted to 11.7 nM; in test [2] it was 1.8 nM.

`Cc1ccc(-n2nccn2)c(C(=O)N(CCn2ccc(-c3ccc(F)cn3)n2)C(C)C)c1` [Example 27, N-{2-[3-(5-fluoropyridin-2-yl)-1H-pyrazol-1-yl]ethyl}-5-methyl-N-(propan-2-yl)-2-(2H-1,2,3-triazol-2-yl)benzamide]: the IC50 in test [1] turned out to be 43.6 nM; in test [2] it was 20.9 nM.

With `CCN(CCn1ccc(-c2ccc(F)cn2)n1)C(=O)c1cc(C)ccc1-c1cccnc1` [Example 36, N-ethyl-N-{2-[3-(5-fluoropyridin-2-yl)-1H-pyrazol-1-yl]ethyl}-5-methyl-2-(pyridin-3-yl)benzamide], the IC50 in test [1] was determined as 58.9 nM; in test [2] it was 30.6 nM.

`CCN(CCn1ccc(-c2ccc(F)c(F)c2)n1)C(=O)c1ccccc1-c1ncccn1` [Example 59, N-{2-[3-(3,4-difluorophenyl)-1H-pyrazol-1-yl]ethyl}-N-ethyl-2-(pyrimidin-2-yl)benzamide]: the IC50 in test [1] amounted to 5.6 nM; in test [2], 1.9 nM.

Regarding `CCN(CCn1ccc(-c2ccc(C(F)(F)F)cn2)n1)C(=O)c1cc(C)ccc1-n1nccn1` [Example 51, N-ethyl-5-methyl-2-(2H-1,2,3-triazol-2-yl)-N-(2-{3-[5-(trifluoromethyl)pyridin-2-yl]-1H-pyrazol-1-yl}ethyl)benzamide], the IC50 in test [1] came to 394 nM; in test [2], 50.9 nM.

Regarding `CCN(CCn1cc(-c2cccc(C)n2)cn1)C(=O)c1cc(C)ccc1-n1nccn1` [Example 12, N-ethyl-N-{2-[4-(6-methylpyridin-2-yl)-1H-pyrazol-1-yl]ethyl}-5-methyl-2-(2H-1,2,3-triazol-2-yl)benzamide], the IC50 in test [1] amounted to 22.7 nM; in test [2], 1.8 nM.

`Cc1ccc(-n2nccn2)c(C(=O)N(C)CCn2cc(-c3ccc(F)cc3)cn2)c1` [Example 3-2, N-{2-[4-(4-fluorophenyl)-1H-pyrazol-1-yl]ethyl}-N,5-dimethyl-2-(2H-1,2,3-triazol-2-yl)benzamide]: the results for the IC50 in test [1] and in test [2] were 7.1 nM and 2.2 nM, respectively.

As to `Cc1ccc(-n2nccn2)c(C(=O)N(C)CCn2cc(-c3ccc(F)cn3)cn2)c1` [Example 2, N-{2-[4-(5-fluoropyridin-2-yl)-1H-pyrazol-1-yl]ethyl}-N,5-dimethyl-2-(2H-1,2,3-triazol-2-yl)benzamide], the half-maximal inhibitory concentration (IC50) in test [1] stood at 47.3 nM; in test [2] it was 17.9 nM.

For `CCN(CCn1cc(-c2ccc(F)cn2)cn1)C(=O)c1cc(C)ccc1-c1ncccn1` [Example 15, N-ethyl-N-{2-[4-(5-fluoropyridin-2-yl)-1H-pyrazol-1-yl]ethyl}-5-methyl-2-(pyrimidin-2-yl)benzamide], the 50% inhibitory concentration (IC50) amounted to 88.3 nM in test [1] and 29.8 nM in test [2].

As for `CCN(CCn1ccc(-c2cccc(C(F)(F)F)n2)n1)C(=O)c1cc(C)ccc1-n1nccn1` [Example 52, N-ethyl-5-methyl-2-(2H-1,2,3-triaz ° 1-2-yl)-N-(2-{3-[6-(trifluoromethyl)pyridin-2-yl]-1H-pyrazol-1-yl}ethyl)benzamide], the half-maximal inhibitory concentration (IC50) in test [1] was determined as 1.3 nM; in test [2], 1.1 nM.
